Reference: patent publication US6451335B1, “Formulations and methods for providing prolonged local anesthesia” (Euro-Celtique S.A., priority 1998, dated 2002)
Where a name gives a salt, the structure may show the parent alone.

What was measured:
rat sciatic nerve [1] = test: Duration of anesthesia of bupivacaine microspheres (LAB) with co-injected additives, hotplate foot withdrawal; format: in vivo; conditions: LAB 150 mg/kg perineural
Experimental: In this example, a large number of pharmaceutical agents were tested for activity in augmenting the duration of local anesthetic activity. Bupivacaine-containing microspheres at about 75% loading, by weight, were injected perineurally into rat sciatic nerve at a dose of 150 mg/kg (weight microspheres/weight rat) to dose of approximately 50 mg/nerve. For the injections, needle placement adjacent to the target nerve was optimized by intermittent electrical e stimulation of the target nerve (via the injection needle) with low amplitude current to produce limb flexion. For the injections, the microspheres were suspended in a carrier vehicle suitable for injection. While any pharmaceutically acceptable carrier vehicle is acceptable, for these experiments the carrier vehicle was 1% sodium carboxymethylcellulose and 1% Tween 80 in water.
Compounds to be tested were co-injected with bupivacaine containing microspheres (i.e., mixed as additives into the carrier vehicle) in a range of concentrations. Results are expressed as percent increase in duration relative to non-augmented durations that were obtained in the same animal model.
The duration of anesthesia was measured by the hotplate foot withdrawal method described above in Example 10 and refers to the time necessary for the animal to recover from maximal nerve latency (12 sec) to a latency of 7 seconds, approximately 50% recovery. The results are tabulated in Table 3 below as percent of control.

rat sciatic nerve [2] = test: as above; format: in vivo; conditions: read-out: Duration Anesthesia As Percent of Control
rat sciatic nerve [3] = test: Rat sciatic nerve model, sensory testing (hotplate hindpaw withdrawal latency); format: in vivo; conditions: for duration of sensory block: augmenting agent with bupivacaine-loaded microspheres vs contralateral side with bupivacaine-loaded microspheres without the agent
Experimental: (§1) The duration of local anesthesia induced by the bupivacaine-loaded microspheres, prepared from PLGA 65:35, with and without the co-administration of an augmenting agent, is tested in a rat sciatic nerve model for localized local anesthesia. […] The latency test determines the time, in seconds, before a rat withdraws its hindpaw from a hotplate set to a safe but uncomfortable temperature (56° C.).
(§2) Selected rats are injected with a solution containing a suspension of bupivacaine-loaded microspheres plus co-administered augmenting agent on one side and injected with a control on the contralateral side so that each rat serves as its own control. Each injection is adjacent to the sciatic nerve. The controls are bupivacaine-loaded microspheres without co-administered augmenting agent and microspheres without any bupivacaine.
As previously discussed, the degree of sensory local anesthesia is measured by determining the time or latency, in seconds, before each rat withdraws its hindpaw from a hotplate set to a safe but uncomfortable temperature. Maximum sciatic nerve sensory blockade is defined as having a latency of about 12 seconds or higher.
Twenty-four rats each receive an injection of bupivacaine-loaded controlled release microspheres into the left or right side, co-administered with a dextran containing injection solution. The contralateral side receive either bupivacaine-loaded microspheres at the same dose, or unloaded microspheres co-administered with a dextran injection solution.
Sensory hot plate latency is measured from the time of the injections until the latency declined to under 2 seconds.

rat sciatic nerve [4] = test: Rat sciatic nerve model, motor testing (4-point scale); format: in vivo; conditions: augmenting agent with bupivacaine-loaded microspheres vs contralateral side with bupivacaine-loaded microspheres without the agent
Experimental: as §1, §2
The degree of motor blockade is measured by scoring the appearance of the affected foot for the signs of loss of motor tone. The assessment is conducted as follows using a 4-point scale based on visual observation: (1) normal appearance, (2) intact dorsiflexion of foot with an impaired ability to splay toes when elevated by the tail, (3) toes and foot remained plantar flexed with no splaying ability, and (4) loss of dorsiflexion, flexion of toes, and impairment of gait.
Motor blockade is scored until the hind paws of motor blockades rats returned to a normal appearance.
Sensory and motor testing is conducted according to sections A and B, respectively, of EXAMPLE 10, above. Using the experimental protocol of section C of EXAMPLE 10, 24 rats are tested.
Sensory and motor testing is conducted according to sections A and B, respectively, of EXAMPLE 10, above.

superficial radial nerve = test: Local anesthesia to pin prick after injection around the superficial radial nerve in normal volunteers; format: in vivo, humans; conditions: n=6; EDLA 3 ml (37.5 mg total) or aqueous bupivacaine HCl 50 mg, single injection
Experimental: Finally, the two compartment release of bupivacaine from EDLA results in rapid onset and prolonged duration of local anesthesia in humans. Normal volunteers (n=6) received a single injection of 3 ml EDLA (37.5 mg total) or aqueous bupivacaine HCl (50 mg) around the superficial radial nerve. Onset of local anesthesia to pin prick over the anatomical snuff box was <3 hours with aqueous bupivacaine with duration of action 6-8 hours. Onset of local anesthesia with EDLA was <3 hours with duration of action 48-72 hours.

[5] = Microdialysis of bupivacaine at i.m. injection site in quadriceps muscle; format: in vivo, Sprague-Dawley rat; conditions: 3 mg i.m., quadriceps femoris
Experimental: To determine whether bupivacaine is released from EDLA in two phases in-vivo, bupivacaine HCl and EDLA was injected into the quadriceps muscles of rats in which microdialysis catheters had been previously placed. Bupivacaine HCl was injected i.m. into the quadriceps femoris of a Sprague-Dawley rat around the area of a microdialysis catheter. […] This rapid escape is consistent with the very short duration of anesthetic action aqueous bupivacaine has in this model. Diffusion of bupivacaine, quantitated by HPLC, was from a single compartment that followed first order kinetics, k=0.25±0.04 min^−1. (SS=3.613). […] The first compartment was apparently identical to the mechanism of escape of soluble bupivacaine HCl, since the rate constant was essentially identical (k=0.22/minute). […] Calibration was determined in vivo by delivery of a 10 ug/ml solution of bupivacaine. […] Excellular bupivacaine was measured in the dialysate every 10 minutes. In vivo extracelluar concentration was determined from the dialysate concentration by factoring in the microdialysis probe recovery which had been previously determined. […]

[6] = immediate release vasoconstrictor, at best; cited from earlier work

| Compound | Duration Anesthesia As Percent of Control (rat sciatic nerve [1]; % Additive Conc. 0.05) | Duration Anesthesia As Percent of Control (rat sciatic nerve [1]; % Additive Conc. 0.5) | also measured |
| --- | --- | --- | --- |
| CC(=O)[C@H]1CC[C@H]2[C@@H]3CC[C@H]4C[C@H](O)CC[C@]4(C)[C@H]3C(=O)C[C@]12C [Alphaxalone] | 169% of Control | 123% of Control | – |
| COc1cc2c(c(OC)c1OC)-c1ccc(OC)c(=O)cc1[C@@H](NC(C)=O)CC2 [Colchicine] | – | – | Duration Anesthesia As Percent of Control (rat sciatic nerve [1]; % Additive Conc. 0.01): 104% of Control; Duration Anesthesia As Percent of Control (rat sciatic nerve [1]; % Additive Conc. 1.0): 277% of Control; Duration Anesthesia As Percent of Control (rat sciatic nerve [1]; % Additive Conc. 10): toxic; response vs control in vivo at 0.1 % (rat sciatic nerve [2]; % Additive Conc. 0.1, Placebo (in place of LAB)): 0%; response vs control in vivo at 10 % (rat sciatic nerve [2]; % Additive Conc. 10, no LAB): 0% |
| Nc1cc(N2CCCCC2)nc(N)[n+]1[O-] [Minoxidil] | 54% of Control | 218-265% of Control | – |
| CC1=NS(=O)(=O)c2cc(Cl)ccc2N1 [Diazoxide] | 138% of Control | 109% of Control | – |
| Dextran | – | – | duration of sensory block (rat sciatic nerve [3]): significantly longer duration of sensory block; sensory blockade (rat sciatic nerve [3]; unloaded microspheres with dextran alone): no sensory blockade; Duration Anesthesia As Percent of Control (rat sciatic nerve [1]; % Additive Conc. 3): 46-144% of Control; duration of motor block (rat sciatic nerve [4]): significantly increased duration of motor block |
| CCCCN1CCCCC1C(=O)Nc1c(C)cccc1C (centres unmarked) [bupivacaine HCl] | – | – | duration of action of local anesthesia (superficial radial nerve): 6 to 8 h; k, first order escape of bupivacaine from i.m. injection site (single compartment) [5]: 0.25 ± 0.04 min⁻¹ |
| O=C1NC(=O)C(c2ccccc2)(c2ccccc2)N1 [5,5-diphenylhydantoin] | – | – | Duration Anesthesia As Percent of Control (rat sciatic nerve [1]; % Additive Conc. 0.11): 152% of Control; Duration Anesthesia As Percent of Control (rat sciatic nerve [1]; % Additive Conc. 1.09): 138% of Control |
| CNC[C@H](O)c1ccc(O)c(O)c1 [epinephrine] | – | – | duration of sensory block (rat sciatic nerve [3]): significantly longer duration of sensory block; duration of motor block (rat sciatic nerve [4]): significantly increased duration of motor block; prolongation of local anesthetic activity [6]: ≤ 1 h |
| CC[C@]1(O)C[C@@H]2CN(CCc3c([nH]c4ccccc34)[C@@](C(=O)OC)(c3cc4c(cc3OC)N(C)[C@H]3[C@@](O)(C(=O)OC)[C@H](OC(C)=O)[C@]5(CC)C=CCN6CC[C@]43[C@@H]65)C2)C1 [Vinblastine] | 158% of Control | – | Duration Anesthesia As Percent of Control (rat sciatic nerve [1]; % Additive Conc. 0.11): 37% of Control; Duration Anesthesia As Percent of Control (rat sciatic nerve [1]; % Additive Conc. 1.09): 40% of Control |
| C[C@@H]1O[C@@H](O[C@H]2C[C@@H](O)[C@]3(CO)[C@H]4[C@H](O)C[C@]5(C)[C@@H](C6=CC(=O)OC6)CC[C@]5(O)[C@@H]4CC[C@]3(O)C2)[C@H](O)[C@H](O)[C@H]1O [Ouabain] | 154% of Control | 178% of Control | – |
| NC(=NCc1ccccc1)NC(=O)c1nc(Cl)c(N)nc1N [Benzamil] | 83% of Control | 154% of Control | – |
| CC(N)Cc1ccccc1 (centres unmarked) [amphetamine] | – | – | duration of sensory block (rat sciatic nerve [3]): significantly longer duration of sensory block; duration of motor block (rat sciatic nerve [4]): significantly increased duration of motor block |
| CC[N+](CC)(CC)CC [Tetraethylammonium] | 95% of Control | 123% of Control | – |
| CN1C(=O)CN=C(c2ccccc2)c2cc(Cl)ccc21 [Diazepam] | 231% of Control | 203% of Control | – |
| CCCC(CCC)C(=O)O [Valproic Acid] | 152% of Control | 138% of Control | – |
| CN[C@@H](C)[C@H](O)c1ccccc1 [ephedrine] | – | – | duration of sensory block (rat sciatic nerve [3]): significantly longer duration of sensory block; duration of motor block (rat sciatic nerve [4]): significantly increased duration of motor block |
| Clc1cccc(Cl)c1N=C1NCCN1 [Clonidine] | 122% of Control | 71% of Control | – |
| Nc1ccncc1 [Aminopyridine (4-AP), Aminopyridine] | 77% of Control | – | Duration Anesthesia As Percent of Control (rat sciatic nerve [1]; % Additive Conc. 0.11): 92% of Control; Duration Anesthesia As Percent of Control (rat sciatic nerve [1]; % Additive Conc. 1.09): 131% of Control |
| C[C@]12CC[C@@H](O)C[C@@H]1CC[C@@H]1[C@@H]2C(=O)C[C@@]2(C)[C@H]1CC[C@]2(O)C(=O)CO [Allotetrahydrocortisone, allotetrahydrocortisone] | 100% of Control | 117% of Control | – |
| COc1ccc2c(c1)CC[C@@H]1[C@@H]2CC[C@]2(C)[C@@H](NCCCCCCN3C(=O)C=CC3=O)CC[C@@H]12 [U-73, 122, 1[6-[[17-beta-3-methoxyestra-1,3,5(10)-triene-17-yl]amino]hexl]1-H-pyrrole-2,5-dione] | 106% of Control | 115% of Control | – |
| CC(=O)O[C@H]1C(=O)[C@@]2(C)[C@H]([C@H](OC(=O)c3ccccc3)[C@]3(O)C[C@H](OC(=O)[C@H](O)[C@@H](NC(=O)c4ccccc4)c4ccccc4)C(C)=C1C3(C)C)[C@]1(OC(C)=O)CO[C@@H]1C[C@@H]2O [Taxol] | – | 82% of Control | Duration Anesthesia As Percent of Control (rat sciatic nerve [1]; % Additive Conc. 0.11): 104% of Control; Duration Anesthesia As Percent of Control (rat sciatic nerve [1]; % Additive Conc. 1.09): 108% of Control |
| Cc1c(N(C)C)c(=O)n(-c2ccccc2)n1C [Aminopyrine] | 146% of Control | 62% of Control | – |
